From ChEMBL document CHEMBL5705888, “Substrate specificity and inhibitors of LRRK2, a protein kinase mutated in Parkinson's disease” (Biochem J, 2009)

Key:
[1] = organism: Homo sapiens; experiment: Inhibition of PHK (unknown origin) at 1 uM incubated for 30 mins in presence of [gamma-33P]ATP by multidrop micro reagent based assay relative to control; values are per cent of control
[2] = target: Calcium/calmodulin-dependent protein kinase type 1 (Homo sapiens) (UniProt Q14012); experiment: Inhibition of CaMK1 (unknown origin) at 10 uM incubated for 30 mins in presence of [gamma-33P]ATP by multidrop micro reagent based assay relative to control; values are per cent of control
Chain of Calcium/calmodulin-dependent protein kinase type 1 (Homo sapiens) (Q14012 whole entry, looked up): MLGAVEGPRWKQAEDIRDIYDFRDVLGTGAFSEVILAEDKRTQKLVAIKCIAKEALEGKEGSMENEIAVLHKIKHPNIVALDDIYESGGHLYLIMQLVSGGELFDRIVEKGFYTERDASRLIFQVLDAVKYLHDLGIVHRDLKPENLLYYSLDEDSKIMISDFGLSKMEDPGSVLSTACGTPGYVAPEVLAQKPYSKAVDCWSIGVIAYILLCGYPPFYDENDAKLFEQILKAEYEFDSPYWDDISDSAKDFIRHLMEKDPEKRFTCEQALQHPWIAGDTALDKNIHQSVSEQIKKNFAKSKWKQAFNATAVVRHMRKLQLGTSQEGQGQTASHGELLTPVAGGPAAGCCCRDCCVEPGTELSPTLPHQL

[3] = target: Myosin light chain kinase, smooth muscle (Homo sapiens) (UniProt Q15746); experiment: Inhibition of SmMLCK (unknown origin) at 10 uM incubated for 30 mins in presence of [gamma-33P]ATP by multidrop micro reagent based assay relative to control; values are per cent of control
Chain of Myosin light chain kinase, smooth muscle (Homo sapiens) (Q15746 whole entry): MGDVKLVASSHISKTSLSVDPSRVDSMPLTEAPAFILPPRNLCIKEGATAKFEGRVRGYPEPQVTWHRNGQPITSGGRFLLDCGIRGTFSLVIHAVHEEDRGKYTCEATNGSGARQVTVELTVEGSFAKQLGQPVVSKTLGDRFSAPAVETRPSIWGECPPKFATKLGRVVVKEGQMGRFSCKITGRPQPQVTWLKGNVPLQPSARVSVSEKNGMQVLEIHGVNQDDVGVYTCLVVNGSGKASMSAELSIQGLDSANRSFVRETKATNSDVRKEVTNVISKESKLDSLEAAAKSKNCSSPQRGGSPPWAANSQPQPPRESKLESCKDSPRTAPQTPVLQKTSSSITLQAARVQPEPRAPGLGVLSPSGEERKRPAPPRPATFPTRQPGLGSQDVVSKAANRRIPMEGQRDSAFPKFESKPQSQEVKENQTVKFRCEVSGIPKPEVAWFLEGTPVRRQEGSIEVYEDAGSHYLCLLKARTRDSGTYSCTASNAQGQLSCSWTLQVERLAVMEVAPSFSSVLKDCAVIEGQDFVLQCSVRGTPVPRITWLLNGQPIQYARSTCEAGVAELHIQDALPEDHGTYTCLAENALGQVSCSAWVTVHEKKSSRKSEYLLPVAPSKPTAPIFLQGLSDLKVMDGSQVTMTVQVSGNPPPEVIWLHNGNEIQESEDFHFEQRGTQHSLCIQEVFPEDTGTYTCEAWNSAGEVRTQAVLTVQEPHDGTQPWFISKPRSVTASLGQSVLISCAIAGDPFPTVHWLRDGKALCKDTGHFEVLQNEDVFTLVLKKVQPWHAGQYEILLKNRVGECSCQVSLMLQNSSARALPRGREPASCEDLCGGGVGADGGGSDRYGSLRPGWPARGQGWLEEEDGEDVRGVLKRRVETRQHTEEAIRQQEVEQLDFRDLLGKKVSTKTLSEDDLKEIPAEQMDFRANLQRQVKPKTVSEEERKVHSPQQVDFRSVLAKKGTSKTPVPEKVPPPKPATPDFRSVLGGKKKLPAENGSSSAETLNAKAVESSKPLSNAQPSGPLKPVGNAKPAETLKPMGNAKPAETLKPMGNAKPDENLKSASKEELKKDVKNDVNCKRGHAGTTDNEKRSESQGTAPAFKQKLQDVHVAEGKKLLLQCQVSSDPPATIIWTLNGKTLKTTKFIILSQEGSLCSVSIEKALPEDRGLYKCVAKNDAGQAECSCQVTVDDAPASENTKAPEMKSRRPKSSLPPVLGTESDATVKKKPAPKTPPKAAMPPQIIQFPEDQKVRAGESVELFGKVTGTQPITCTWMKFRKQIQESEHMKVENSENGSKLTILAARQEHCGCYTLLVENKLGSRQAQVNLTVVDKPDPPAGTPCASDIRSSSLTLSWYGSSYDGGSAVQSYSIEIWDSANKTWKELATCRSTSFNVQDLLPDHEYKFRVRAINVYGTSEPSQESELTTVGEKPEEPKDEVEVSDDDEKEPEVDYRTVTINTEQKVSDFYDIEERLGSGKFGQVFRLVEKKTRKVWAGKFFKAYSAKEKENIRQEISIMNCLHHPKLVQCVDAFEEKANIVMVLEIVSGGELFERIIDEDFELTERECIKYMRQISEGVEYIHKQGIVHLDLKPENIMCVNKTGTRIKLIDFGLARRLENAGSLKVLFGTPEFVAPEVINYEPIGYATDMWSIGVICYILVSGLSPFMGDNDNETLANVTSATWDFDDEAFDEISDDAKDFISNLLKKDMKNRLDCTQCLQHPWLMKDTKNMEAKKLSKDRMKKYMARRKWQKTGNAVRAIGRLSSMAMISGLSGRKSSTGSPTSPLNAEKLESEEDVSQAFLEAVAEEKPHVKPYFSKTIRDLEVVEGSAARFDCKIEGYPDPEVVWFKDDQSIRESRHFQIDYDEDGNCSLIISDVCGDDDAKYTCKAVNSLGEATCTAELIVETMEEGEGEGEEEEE

[4] = target: Serine/threonine-protein kinase Chk2 (Homo sapiens) (UniProt O96017); experiment: Inhibition of CHK2 (unknown origin) at 10 uM incubated for 30 mins in presence of [gamma-33P]ATP by multidrop micro reagent based assay relative to control; values are per cent of control
Chain of Serine/threonine-protein kinase Chk2 (Homo sapiens) (O96017 whole entry): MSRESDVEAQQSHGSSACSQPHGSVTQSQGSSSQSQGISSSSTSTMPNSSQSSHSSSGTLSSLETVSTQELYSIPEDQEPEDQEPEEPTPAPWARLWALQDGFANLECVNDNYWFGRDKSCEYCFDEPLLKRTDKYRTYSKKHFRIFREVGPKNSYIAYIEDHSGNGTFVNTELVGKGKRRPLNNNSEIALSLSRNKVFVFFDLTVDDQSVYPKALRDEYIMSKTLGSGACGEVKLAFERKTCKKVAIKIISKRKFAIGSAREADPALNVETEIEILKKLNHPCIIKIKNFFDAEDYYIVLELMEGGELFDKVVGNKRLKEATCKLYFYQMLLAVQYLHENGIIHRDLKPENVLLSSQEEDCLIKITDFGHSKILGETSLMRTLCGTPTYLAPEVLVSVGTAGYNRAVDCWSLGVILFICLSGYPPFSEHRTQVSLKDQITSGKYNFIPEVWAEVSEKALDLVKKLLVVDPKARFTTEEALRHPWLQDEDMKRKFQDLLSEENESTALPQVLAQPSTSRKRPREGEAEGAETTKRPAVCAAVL

[5] = target: T1, Protein kinase C zeta type (Homo sapiens) (UniProt Q05513); experiment: Inhibition of PKCzeta (unknown origin) at 10 uM incubated for 30 mins in presence of [gamma-33P]ATP by multidrop micro reagent based assay relative to control; values are per cent of control
T1 sequence (whole entry): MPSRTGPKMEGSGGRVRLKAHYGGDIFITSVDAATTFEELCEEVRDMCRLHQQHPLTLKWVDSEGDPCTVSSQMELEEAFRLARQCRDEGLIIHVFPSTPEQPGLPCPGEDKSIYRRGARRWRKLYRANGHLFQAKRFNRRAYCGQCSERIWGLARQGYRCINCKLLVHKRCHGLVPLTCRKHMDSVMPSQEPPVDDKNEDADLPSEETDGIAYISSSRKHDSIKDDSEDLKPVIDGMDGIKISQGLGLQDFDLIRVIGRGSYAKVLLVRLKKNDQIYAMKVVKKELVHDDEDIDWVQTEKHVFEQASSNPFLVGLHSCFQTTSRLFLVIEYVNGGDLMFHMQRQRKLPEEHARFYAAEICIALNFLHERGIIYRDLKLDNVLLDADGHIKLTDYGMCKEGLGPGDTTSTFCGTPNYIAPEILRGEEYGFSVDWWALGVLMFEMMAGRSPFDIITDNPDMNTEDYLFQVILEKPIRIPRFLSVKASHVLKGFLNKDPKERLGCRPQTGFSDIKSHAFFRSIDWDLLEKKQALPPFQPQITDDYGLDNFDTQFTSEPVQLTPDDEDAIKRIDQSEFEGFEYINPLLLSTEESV

[6] = target: T2, Serine/threonine-protein kinase BRSK2 (Homo sapiens) (UniProt Q8IWQ3); experiment: Inhibition of BRSK2 (unknown origin) at 10 uM incubated for 30 mins in presence of [gamma-33P]ATP by multidrop micro reagent based assay relative to control
T2 sequence (whole entry): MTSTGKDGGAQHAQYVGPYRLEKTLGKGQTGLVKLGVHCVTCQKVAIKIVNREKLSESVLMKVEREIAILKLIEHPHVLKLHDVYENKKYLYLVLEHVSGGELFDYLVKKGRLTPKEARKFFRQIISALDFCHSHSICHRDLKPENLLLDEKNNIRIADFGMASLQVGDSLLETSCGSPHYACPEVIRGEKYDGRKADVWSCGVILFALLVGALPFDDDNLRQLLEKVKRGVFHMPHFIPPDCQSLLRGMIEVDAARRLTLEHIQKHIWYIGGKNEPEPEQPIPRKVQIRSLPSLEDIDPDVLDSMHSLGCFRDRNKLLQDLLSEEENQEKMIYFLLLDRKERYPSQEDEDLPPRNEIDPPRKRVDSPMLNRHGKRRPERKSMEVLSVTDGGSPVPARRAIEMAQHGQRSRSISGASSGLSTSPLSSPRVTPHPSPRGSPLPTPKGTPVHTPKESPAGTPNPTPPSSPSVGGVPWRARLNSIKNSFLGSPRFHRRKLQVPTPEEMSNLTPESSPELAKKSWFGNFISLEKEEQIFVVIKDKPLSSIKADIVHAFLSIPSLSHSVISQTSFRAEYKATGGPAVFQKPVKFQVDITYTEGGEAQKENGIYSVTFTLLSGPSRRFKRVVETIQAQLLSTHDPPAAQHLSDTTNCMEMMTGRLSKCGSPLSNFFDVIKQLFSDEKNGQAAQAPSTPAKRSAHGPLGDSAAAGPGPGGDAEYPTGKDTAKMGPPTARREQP

[7] = target: T3, Serine/threonine-protein kinase TBK1 (Homo sapiens) (UniProt Q9UHD2); experiment: Inhibition of TBK1 (unknown origin) at 10 uM incubated for 30 mins in presence of [gamma-33P]ATP by multidrop micro reagent based assay relative to control; values are per cent of control
T3 sequence (whole entry): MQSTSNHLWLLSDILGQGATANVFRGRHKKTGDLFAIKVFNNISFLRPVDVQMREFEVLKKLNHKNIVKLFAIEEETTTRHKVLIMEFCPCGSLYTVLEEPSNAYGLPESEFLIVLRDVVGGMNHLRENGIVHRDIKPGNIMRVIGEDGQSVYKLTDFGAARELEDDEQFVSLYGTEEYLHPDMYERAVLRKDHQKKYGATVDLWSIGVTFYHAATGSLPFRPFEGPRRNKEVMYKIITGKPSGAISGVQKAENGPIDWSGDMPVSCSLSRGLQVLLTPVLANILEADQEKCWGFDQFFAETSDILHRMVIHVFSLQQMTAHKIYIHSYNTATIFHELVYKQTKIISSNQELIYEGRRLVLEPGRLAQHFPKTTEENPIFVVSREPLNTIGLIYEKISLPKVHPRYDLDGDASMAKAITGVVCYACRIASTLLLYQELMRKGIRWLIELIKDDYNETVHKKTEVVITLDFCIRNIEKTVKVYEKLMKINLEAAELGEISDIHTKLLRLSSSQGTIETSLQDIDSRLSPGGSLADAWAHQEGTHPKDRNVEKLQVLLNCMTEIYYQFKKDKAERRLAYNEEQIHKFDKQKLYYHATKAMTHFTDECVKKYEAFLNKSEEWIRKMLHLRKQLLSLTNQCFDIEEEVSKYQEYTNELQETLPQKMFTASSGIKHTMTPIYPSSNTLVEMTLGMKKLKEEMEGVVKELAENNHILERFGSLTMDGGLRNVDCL

| SMILES | residual activity [1] | residual activity [2] | residual activity [3] | residual activity [4] | residual activity [5] | inhibition [6] | residual activity [7] |
| --- | --- | --- | --- | --- | --- | --- | --- |
| CC1=C(C(=O)Nc2cc3cn[nH]c3cc2F)C(c2ccc(C(F)(F)F)cc2)CC(=O)N1 (centres undefined) | 97% | – | – | – | – | – | – |
| CCN(CC)CCNC(=O)c1c(C)[nH]c(/C=C2\C(=O)Nc3ccc(F)cc32)c1C | 2% | – | – | – | – | – | – |
| C[C@@H](N)[C@H]1CC[C@H](C(=O)Nc2ccncc2)CC1 | – | 85% | 70% | 93% | 69% | 43% | 69% |
| O=S(=O)(c1cccc2cnccc12)N1CCCNCC1 [FASUDIL] | – | 109% | 66% | 34% | 66% | 38% | 110% |
